Test results reported in ChEMBL document CHEMBL1157966, “Synthesis of salvinorin A analogues as opioid receptor probes” (J Nat Prod, 2006).

Tests used:
[1] = biological target: Kappa-type opioid receptor (Homo sapiens, UniProt P41145); test: Displacement of [125]OXY from kappa opioid receptor
[2] = Selectivity ratio of Ki for delta opioid receptor to kappa opioid receptor
[3] = Selectivity ratio of Ki for mu opioid receptor to kappa opioid receptor
[4] = biological target: Mu-type opioid receptor (Homo sapiens, UniProt P35372); test: Displacement of [125]OXY from mu opioid receptor
[5] = biological target: Delta-type opioid receptor (Homo sapiens, UniProt P41143); test: Displacement of [125]OXY from delta opioid receptor
Chain of Delta-type opioid receptor (P41143 whole entry): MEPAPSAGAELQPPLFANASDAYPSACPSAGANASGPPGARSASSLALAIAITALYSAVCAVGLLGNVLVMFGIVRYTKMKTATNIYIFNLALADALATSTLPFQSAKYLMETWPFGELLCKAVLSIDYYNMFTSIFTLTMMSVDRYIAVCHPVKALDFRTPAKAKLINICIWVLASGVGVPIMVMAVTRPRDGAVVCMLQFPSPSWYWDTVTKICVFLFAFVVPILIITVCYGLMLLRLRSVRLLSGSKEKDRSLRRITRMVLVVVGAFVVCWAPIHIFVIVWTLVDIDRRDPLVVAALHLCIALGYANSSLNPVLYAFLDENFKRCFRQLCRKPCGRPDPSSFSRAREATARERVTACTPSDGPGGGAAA

Chain of Kappa-type opioid receptor (P41145 whole entry): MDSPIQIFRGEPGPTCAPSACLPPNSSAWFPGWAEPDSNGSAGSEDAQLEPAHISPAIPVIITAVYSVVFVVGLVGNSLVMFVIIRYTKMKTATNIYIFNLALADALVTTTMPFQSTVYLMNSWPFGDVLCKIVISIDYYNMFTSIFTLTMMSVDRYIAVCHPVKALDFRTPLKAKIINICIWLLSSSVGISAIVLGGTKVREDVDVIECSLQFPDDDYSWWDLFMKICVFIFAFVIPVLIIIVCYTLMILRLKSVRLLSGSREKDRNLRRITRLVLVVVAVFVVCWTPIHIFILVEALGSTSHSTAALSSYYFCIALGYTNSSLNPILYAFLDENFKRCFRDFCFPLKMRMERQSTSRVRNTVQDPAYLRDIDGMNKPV
Chain of Mu-type opioid receptor (P35372 whole entry): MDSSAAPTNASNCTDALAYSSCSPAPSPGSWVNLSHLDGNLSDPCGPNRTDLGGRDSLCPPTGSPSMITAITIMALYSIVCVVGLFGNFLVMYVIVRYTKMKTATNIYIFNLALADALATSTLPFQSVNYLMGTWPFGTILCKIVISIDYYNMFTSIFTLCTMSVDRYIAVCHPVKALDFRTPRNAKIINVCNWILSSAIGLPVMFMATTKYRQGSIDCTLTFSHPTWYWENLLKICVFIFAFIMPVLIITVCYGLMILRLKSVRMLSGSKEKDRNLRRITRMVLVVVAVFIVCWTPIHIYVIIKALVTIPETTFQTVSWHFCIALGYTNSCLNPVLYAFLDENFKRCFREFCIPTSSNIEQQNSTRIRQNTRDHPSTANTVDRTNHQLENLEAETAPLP

Structure (SMILES) | Ki [1] | Ratio Ki [2] | Ratio Ki [3] | Ki [4] | Ki [5]
COC(=O)[C@@H]1C[C@H](OC(=O)c2cccs2)C(=O)[C@H]2[C@@]1(C)CC[C@H]1C(=O)O[C@H](c3ccoc3)C[C@]21C | 0.26 µM | 5 | 0.04 | 0.01 µM | 1.38 µM
COC(=O)[C@@H]1C[C@H](OC(=O)CCc2ccccc2)C(=O)[C@H]2[C@@]1(C)CC[C@H]1C(=O)O[C@H](c3ccoc3)C[C@]21C | 0.18 µM | 52 | 2 | 0.28 µM | 9.33 µM
CCC(=O)O[C@H]1C[C@@H](C(=O)OC)[C@]2(C)CC[C@H]3C(=O)O[C@H](c4ccoc4)C[C@]3(C)[C@H]2C1=O | – | 2730 | > 560 | – | –
COC(=O)[C@@H]1C[C@H](OC(=O)c2ccccc2)C(=O)[C@H]2[C@@]1(C)CC[C@H]1C(=O)O[C@H](c3ccoc3)C[C@]21C | – | 12 | 0.13 | – | –
COC(=O)[C@@H]1C[C@H](OC(=O)c2ccc(Br)cc2)C(=O)[C@H]2[C@@]1(C)CCC1C(=O)O[C@H](c3ccoc3)C[C@@]12C (single isomer, unassigned) | 0.74 µM | 2 | 0.01 | 0.01 µM | 1.41 µM
COC(=O)[C@@H]1C[C@H](OC(=O)c2cccc(Br)c2)C(=O)[C@H]2[C@@]1(C)CCC1C(=O)O[C@H](c3ccoc3)C[C@@]12C (single isomer, unassigned) | 0.07 µM | > 100 | 1.6 | 0.11 µM | > 10 µM
CCCC(=O)O[C@H]1C[C@@H](C(=O)OC)[C@]2(C)CCC3C(=O)O[C@H](c4ccoc4)C[C@]3(C)[C@H]2C1=O (single isomer, unassigned) | 0.004 µM | 1010 | 130 | 0.52 µM | 4.03 µM
COC(=O)[C@@H]1C[C@H](OC(=O)c2ccccc2Br)C(=O)[C@H]2[C@@]1(C)CCC1C(=O)O[C@H](c3ccoc3)C[C@@]12C (single isomer, unassigned) | 0.09 µM | > 100 | 1.2 | 0.11 µM | > 10 µM
CCCCCC(=O)O[C@H]1C[C@@H](C(=O)OC)[C@]2(C)CCC3C(=O)O[C@H](c4ccoc4)C[C@]3(C)[C@H]2C1=O (single isomer, unassigned) | 0.07 µM | 61 | 7 | 0.52 µM | 4.24 µM
CCCCC(=O)O[C@H]1C[C@@H](C(=O)OC)[C@]2(C)CCC3C(=O)O[C@H](c4ccoc4)C[C@]3(C)[C@H]2C1=O (single isomer, unassigned) | 0.015 µM | 265 | 21 | 0.31 µM | 3.97 µM
COC(=O)[C@@H]1C[C@H](OC(=O)Cc2ccccc2)C(=O)[C@H]2[C@@]1(C)CCC1C(=O)O[C@H](c3ccoc3)C[C@@]12C (single isomer, unassigned) | 0.29 µM | > 30 | 4 | 1.09 µM | > 10 µM
COC(=O)[C@@H]1C[C@H](OS(=O)(=O)c2ccc(C)cc2)C(=O)[C@H]2[C@@]1(C)CCC1C(=O)O[C@H](c3ccoc3)C[C@@]12C (single isomer, unassigned) | 0.05 µM | 74 | 4 | 0.22 µM | 3.72 µM
COC(=O)[C@@H]1C[C@H](OC(=O)CNC(=O)OC(C)(C)C)C(=O)[C@H]2[C@@]1(C)CCC1C(=O)O[C@H](c3ccoc3)C[C@@]12C (single isomer, unassigned) | 0.09 µM | > 100 | 63 | 5.66 µM | > 10 µM
COC(=O)[C@@H]1C[C@H](OS(=O)(=O)c2ccccc2)C(=O)[C@H]2[C@@]1(C)CCC1C(=O)O[C@H](c3ccoc3)C[C@@]12C (single isomer, unassigned) | 0.06 µM | > 150 | > 150 | > 10 µM | > 10 µM
